Data taken from patent US11274079B2 (DALIAN INSTITUTE OF CHEMICAL PHYSICS, CHINESE ACADEMY OF …, priority 2018, dated 2022).
Counter-ions that a name gives are not always drawn.

Assays:
[1] = biological target: T1, M3 receptor (Homo sapiens, UniProt P20309); test: DMR assay, antagonism of acetylcholine in HT-29 cells endogenously expressing the M3 receptor; type: cell-based; conditions: for IC50: DMR, acetylcholine 16 μM, 1 h pretreatment, time point 30 min; for antagonistic activity against the M3 receptor, in words: structure-activity comparison with parent compound
T1 construct: HT-29 cell model endogenously highly expressing the M3 receptor; endogenous in cells; host or cells: HT-29
Procedure: (§1) The present invention relates to the antagonistic activity of the compound against the muscarinic receptor, which is primarily assessed by a cell-level dynamic mass redistribution (DMR) assay method. All tests are carried out on Epic platform, wherein the target model of the muscarinic receptor M1 is the CHO-K1 ceil model stably transfecting the M1 receptor, the target model of M3 is the HT-29 cell model endogenously highly expressing the M3 receptor, and the selected probe molecule is acetylcholine. Tire probe molecule acetylcholine is dissolved in water, while all other compounds are dissolved in DMSO.
The inoculated cell plate is placed in a cell incubator for culture for 20 h until the cell growth and fusion degree reaches about 95%, and the activity assay is carried out. The culture medium is sucked from the cultured cells, the buffer salt specified by the test is added with a volume of 30 μL per orifice and is stabilized for 1 h. After the baseline is stable, a 2-min baseline is established, and different concentrations of compounds to be tested are added to test the cultured cells for 1 h.

[2] = biological target: T2, M1 receptor (Homo sapiens, UniProt P11229); test: DMR assay, antagonism of acetylcholine in CHO-K1 cells stably transfecting the M1 receptor; type: cell-based; conditions: for IC50: DMR, acetylcholine 1 μM, 1 h pretreatment, time point 5 min; for antagonistic activity against the M1 receptor, in words: structure-activity comparison with parent compound
T2 construct: expressed in transfected cells; host or cells: CHO-K1
T2 sequence (P11229 1-460): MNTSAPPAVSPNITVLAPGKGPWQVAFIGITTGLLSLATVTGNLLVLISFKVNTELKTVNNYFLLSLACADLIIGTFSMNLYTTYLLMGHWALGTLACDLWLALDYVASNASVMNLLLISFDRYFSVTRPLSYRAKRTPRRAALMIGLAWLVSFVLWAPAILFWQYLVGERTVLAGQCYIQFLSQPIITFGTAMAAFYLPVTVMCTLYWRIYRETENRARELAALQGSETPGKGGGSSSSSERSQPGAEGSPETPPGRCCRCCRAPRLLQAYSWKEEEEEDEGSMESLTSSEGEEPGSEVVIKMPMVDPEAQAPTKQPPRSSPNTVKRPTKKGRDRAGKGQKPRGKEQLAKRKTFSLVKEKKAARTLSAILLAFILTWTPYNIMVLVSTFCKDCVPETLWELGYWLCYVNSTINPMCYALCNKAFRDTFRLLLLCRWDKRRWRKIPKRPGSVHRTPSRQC
Procedure: as §1
The inoculated cell plate is placed in a cell incubator for culture for 12 h until the cell growth and fusion degree reaches about 95%, and the activity assay is carried out. The culture medium is sucked from the cultured ceils, the buffer salt specified by the test is added with a volume of 30 μL per orifice and is stabilized for 1 h. After the baseline is stable, a 2-min baseline is established, and different concentrations of compounds to be tested are added to test the cultured cells for 1 h. After the cells are pretreated with the compounds to be tested for 1 h, the 2-min baseline is re-established, and acetylcholine having a concentration of 1 μM is added to test the cultured cells for 1 h.

T1 sequence (P20309 whole entry): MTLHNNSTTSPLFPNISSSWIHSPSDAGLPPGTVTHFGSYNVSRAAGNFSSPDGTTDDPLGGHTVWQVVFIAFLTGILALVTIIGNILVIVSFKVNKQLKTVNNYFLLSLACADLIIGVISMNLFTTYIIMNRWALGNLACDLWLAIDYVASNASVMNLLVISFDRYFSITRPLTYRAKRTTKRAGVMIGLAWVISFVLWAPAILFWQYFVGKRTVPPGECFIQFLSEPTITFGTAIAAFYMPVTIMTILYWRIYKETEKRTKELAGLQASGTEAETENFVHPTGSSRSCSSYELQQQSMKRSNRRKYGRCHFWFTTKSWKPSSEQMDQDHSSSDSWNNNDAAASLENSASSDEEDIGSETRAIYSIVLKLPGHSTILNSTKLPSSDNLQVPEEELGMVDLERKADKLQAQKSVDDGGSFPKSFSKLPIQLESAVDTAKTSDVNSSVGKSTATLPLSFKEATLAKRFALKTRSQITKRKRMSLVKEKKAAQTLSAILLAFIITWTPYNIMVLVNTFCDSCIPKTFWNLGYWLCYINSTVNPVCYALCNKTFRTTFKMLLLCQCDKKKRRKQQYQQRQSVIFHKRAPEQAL

IC50 ([1]; HT-29 cells) [nM] | IC50 ([2]; CHO-K1-M1 cells) [nM] | Compound | further results
249 ± 9.8 | – | CN1CCCCC1CC(c1ccccc1)c1cc(C(F)(F)F)ccc1O (stereo not shown) [II-13, 2-[2-(2-hydroxy-5-trifluoromethyl-phenyl)-phenethyl]-N-methylpiperidine] | –
109 ± 39.4 | 83.2 ± 22.8 | CN1CCCCC1CC(c1ccccc1)c1cc(F)ccc1O (single isomer, unassigned) [II-10b, 2-[2-(2-hydroxy-5-fluorophenyl)-phenethyl]-N-methylpiperidine] | –
210 ± 30 | 230 ± 10 | Cc1ccc(O)c(C(CC2CCCCN2C)c2ccccc2F)c1 (stereo not shown) [II-7, 2-[2-(2-fluorophenyl)-2-(2-hydroxy-5-methyl-phenyl)ethyl]-N-methylpiperidine] | –
258 ± 30.4 | 63 ± 7.5 | CCc1ccc(O)c(C(CC2CCCN2C)c2ccccc2)c1 (stereo not shown) [II-20] | –
690 ± 160 | 1900 ± 500 | Cc1ccc(OC(=O)C(C)C)c(C(CC2CCCCN2C)c2ccccc2)c1 (stereo not shown) [II-23, 2-[2-(2-isobutyryl estergroup-5-methyl-phenyl)-phenethyl]-N-methylpiperidine] | antagonistic activity against the M3 receptor, in words [1]: the activity is greatly decreased; antagonistic activity against the M1 receptor, in words [2]: the activity is greatly decreased
137 ± 22.9 | 74.5 ± 6 | Cc1ccc(O)c(C(CC2CCCN2C)c2ccccc2)c1 (stereo not shown) [II-19] | –
2970 ± 700 | 1600 ± 200 | Cc1ccc(OC(=O)c2ccccc2)c(C(CC2CCCCN2C)c2ccccc2)c1 (stereo not shown) [II-25, 2-[2-(2-benzoate Group-5-methyl-phenyl)-phenethyl]-N-methylpiperidine] | antagonistic activity against the M3 receptor, in words [1]: the activity is greatly decreased; antagonistic activity against the M1 receptor, in words [2]: the activity is greatly decreased
370 ± 159 | 190 ± 35.8 | CN1CCCCC1CC(c1ccccc1)c1cc(O)ccc1O (stereo not shown) [II-11, 2-[2-(2,5-dihydroxy-phenyl)-phenethyl]-N-methylpiperidine] | –
620 ± 49.4 | – | CCCCCOc1ccc(O)c(C(CC2CCCCN2C)c2ccccc2)c1 (stereo not shown) [II-12, 2-[2-(2-hydroxy-5-pentyloxy-phenyl)-phenethyl]-N-methylpiperidine] | –
112 ± 20 | 65.1 ± 11.7 | Cc1ccc(C(CC2CCCCN2C)c2cc(C)ccc2O)cc1 (stereo not shown) [II-15, 2-[2-(4-tolyl)-2-(2-hydroxy-5-methyl-phenyl)-ethyl]-N-methylpiperidine] | –
20.7 ± 3.6 | – | Cc1ccc(O)c(C(CC2CCCCN2C)c2ccsc2)c1 (stereo not shown) [II-22, 2-[2-(3-thienyl)-2-(2-hydroxy-5-methyl-phenyl)-ethyl]-N-methylpiperidine] | –
49.3 | 53.2 ± 12.5 | CN1CCCCC1CC(c1ccccc1)c1cc(F)ccc1O (single isomer, unassigned) [II-10a, 2-[2-(2-hydroxy-5-fluorophenyl)-phenethyl]-N-methylpiperidine] | –
371 ± 67.8 | – | CCc1cccc(C(CC2CCCCN2C)c2cc(C(C)C)cc(C)c2O)c1 (stereo not shown) [II-16, 2-[2-(2-hydroxy-3-methyl-5-isopropylphenyl)-2-(3-ethylphenyl)-ethyl]-N-methylpiperidine] | –

The next lines start with the compound.

Compound | IC50 ([1]; HT-29 cells) [nM] | IC50 ([2]; CHO-K1-M1 cells) [nM] | further results
Cc1ccc(O)c(C(CC2CCCC[N+]2(C)C)c2ccsc2)c1 (stereo not shown) [I-22, 2-[2-(3-thienyl)-2-(2-hydroxy-5-methyl-phenyl)-ethyl]-N,N-dimethylpiperidine Bromide] | 10.7 ± 1.6 | 25.7 ± 0.8 | –
Cc1ccc(O)c(C(CC2CCCC[N+]2(C)C)c2ccccc2)c1 (stereo not shown) [I-4a-2-Br, 2-[2-(2-hydroxy-5-methyl-phenyl)-phenethyl]-N,N-dimethylpiperidine Bromide] | 1210 ± 120 | 832 ± 132 | –
C[N+]1(C)CCCCC1CC(c1ccccc1O)c1ccccc1O (stereo not shown) [I-3-I, 2-[2,2-bis(2-hydroxyphenyl)ethyl]-N,N-dimethylpiperidine Iodide] | 6.9 ± 1.3 | 63.5 ± 15.1 | –
CCc1ccc(O)c(C(CC2CCCC[N+]2(C)C)c2ccccc2)c1 (stereo not shown) [I-5-Br, 2-[2-(2-hydroxy-5-ethyl-phenyl)-phenethyl]-N,N-dimethylpiperidine Bromide] | 10.5 ± 1.1 | 45.6 ± 7.8 | –
COc1ccc(O)c(C(CC2CCCC[N+]2(C)C)c2ccccc2)c1 (stereo not shown) [I-9, 2-[2-(2-hydroxy-5-methoxyphenyl)-phenethyl]-N,N-dimethylpiperidine Bromide] | 160 ± 20.3 | 100 ± 10.2 | –
CN1CCCCC1CC(c1ccccc1O)c1ccccc1O (stereo not shown) [I-3-Cl, 2-[2,2-bis(2-hydroxyphenyl)-ethyl]-N-methylpiperidine Hydrochloride] | 66.2 ± 51.8 | 402 ± 185 | –
CCc1ccc(O)c(C(CC2CCCC[N+]2(C)C)c2ccccc2)c1 (stereo not shown) [I-5-I, 2-[2-(2-hydroxy-5-ethyl-phenyl)-phenethyl]-N,N-dimethylpiperidine Iodide] | 18.8 ± 2.3 | 20 ± 2.3 | –
Cc1ccc(O)c(C(CC2CCCC[N+]2(C)CCCOc2ccccc2)c2ccccc2)c1.[Br-] (racemic) [I-4a-PrOPh, 2-[2-(2-hydroxy-5-methyl-phenyl)-phenethyl]-N-methyl, N-phenoxypropyl Piperidine Bromide] | 279 ± 128 | 295 ± 136 | antagonistic activity against the M3 receptor, in words [1]: a significant decrease in activity
C[N+]1(C)CCCCC1CC(c1ccccc1)c1cc(F)ccc1O (single isomer, unassigned) [I-10a, 2-[2-(2-hydroxy-5-fluorophenyl)-phenylethyl]-N,N-dimethylpiperidine bromide] | – | 13.2 ± 1.2 | –
C[N+]1(C)CCCCC1CC(c1ccccc1)c1cc(F)ccc1O (single isomer, unassigned) [I-10b, 2-[2-(2-hydroxy-5-fluorophenyl)-phenylethyl]-N,N-dimethylpiperidine bromide] | 12.1 ± 5.3 | 23.2 ± 12.1 | –
Cc1ccc(C(CC2CCCC[N+]2(C)C)c2cc(C)ccc2O)cc1 (stereo not shown) [I-15, 2-[2-(4-tolyl)-2-(2-hydroxy-5-methyl-phenyl)-ethyl]-N,N-dimethylpiperidine Bromide] | 78 ± 31 | 48.3 ± 11 | –
C[N+]1(C)CCCCC1CC(c1ccccc1)c1cc(F)ccc1O (single isomer, unassigned) [I-10a-2, 2-[2-(2-hydroxy-5-fluorophenyl)-phenylethyl]-N,N-dimethylpiperidine bromide] | 82.9 ± 11.7 | – | –
C[N+]1(C)CCCCC1CC(c1ccccc1)c1ccccc1O (stereo not shown) [I-2a-2-Br, 2-[2-(2-hydroxy-phenyl)-phenethyl]-N,N-dimethylpiperidine Bromide] | 28.4 ± 6.1 | 33.8 ± 8.6 | –
C[N+]1(C)CCCCC1CC(c1ccccc1)c1ccc(F)cc1O (stereo not shown) [I-8, 2-[2-(2-hydroxy-4-fluorophenyl)-phenethyl]-N,N-dimethylpiperidine bromide] | 97.2 ± 21.1 | 113 ± 41.2 | –
Cc1ccc(O)c(C(CC2CCCC[N+]2(C)C)c2ccccc2)c1 (stereo not shown) [I-4b-1-Br, 2-[2-(2-hydroxy-5-methyl-phenyl)-phenethyl]-N,N-dimethylpiperidine Bromide] | 27.1 ± 5.3 | 47.5 ± 13.5 | –
CN1CCCCC1CC(c1ccccc1O)c1ccccc1O (single isomer, unassigned) [II-3-2, 2-[2,2-bis(2-hydroxy-phenyl)-ethyl]-N-methylpiperidine] | 67.3 ± 6.6 | 53.4 ± 16.2 | –
CN1CCCCC1CC(c1ccccc1)c1ccccc1O (stereo not shown) [II-2a, 2-[2-(2-hydroxy-phenyl)phenethyl]-N-methylpiperidine] | – | – | DMR response signal of the compound itself ([1]; HT-29 cells, FIG. 2): almost zero
C[N+]1(C)CCCCC1CC(c1ccccc1)c1cc(F)ccc1O (stereo not shown) [I-10b-1, 2-[2-(2-hydroxy-5-fluorophenyl)-phenylethyl]-N,N-dimethylpiperidine bromide] | 35.2 ± 6.3 | – | –
2-[2-(2-hydroxy-5-fluorophenyl)-phenylethyl]-N,N-dimethylpiperidine bromide [I-10b] | 109 ± 39.4 | – | –
2-[2-(2-methyl p-toluenesulfonate group-5-methyl-phenyl)-phenethyl]-N,N-dimethylpiperidine Bromide [I-26] | 793 ± 69.7 | – | –
CCc1ccc(O)c(C(CC2CCCCN2C)c2ccccc2)c1 (stereo not shown) | – | – | DMR response signal of the compound itself ([2]; CHO-K1-M1 cells, FIG. 1): almost zero; antagonistic activity against the M1 receptor, in words [2]: the highest
C[N+]1(C)CCCCC1CC(c1ccccc1)c1cc(F)ccc1O (single isomer, unassigned) [I-10b-2, 2-[2-(2-hydroxy-5-fluorophenyl)-phenylethyl]-N,N-dimethylpiperidine bromide] | 164 ± 12.6 | – | –
